Test results taken from patent US20130303509A1, “NAMPT INHIBITORS” (AbbVie Inc., priority 2012, published 2013).

Each compound was assayed on PC3 cells (assay: NAMPT Cell Proliferation Assay). Conditions: Homo sapiens, PC-3, 120 h, 5 days incubation, cell viability by Cell Titer Glo.
Assay type: cell-based
Method in brief: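 Five-day CellTiter-Glo viability readout in PC3 cells grown in RPMI/10% heat-inactivated FBS. Compounds added after overnight attachment as a 10-fold dilution series, […]. Percent inhibition fitted to sigmoidal dose-response to derive IC50.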

Row | Structure (SMILES) | IC50 [nM]
1 | O=C(Nc1ccc(C2CCN(C(=O)COCc3ccccc3)CC2)cc1)C1CN(c2cccnn2)C1 [Example 409, N-(4-{1-[(benzyloxy)acetyl]piperidin-4-yl}phenyl)-1-(pyridazin-3-yl)azetidine-3-carboxamide] | 6.72
2 | O=C(Nc1ccc(C2CCN(C(=O)Cc3cccc4ccccc34)CC2)cc1)C1CN(c2cccnn2)C1 [Example 410, N-{4-[1-(naphthalen-1-ylacetyl)piperidin-4-yl]phenyl}-1-(pyridazin-3-yl)azetidine-3-carboxamide] | 8.68
3 | O=C(Nc1ccc(C2CCN(C(=O)C3CCOC3)CC2)cc1)C1CN(c2cccnn2)C1 (centres unmarked) [Example 414, 1-(pyridazin-3-yl)-N-{4-[1-(tetrahydrofuran-3-ylcarbonyl)piperidin-4-yl]phenyl}azetidine-3-carboxamide] | 7.4
4 | O=C(Nc1ccc(C2CCN(C(=O)CCCc3cccs3)CC2)cc1)C1CN(c2cccnn2)C1 [Example 415, 1-(pyridazin-3-yl)-N-(4-{1-[4-(thiophen-2-yl)butanoyl]piperidin-4-yl}phenyl)azetidine-3-carboxamide] | 2.28
5 | Cc1ccc(S(=O)(=O)NCC(=O)N2CCC(c3ccc(NC(=O)C4CN(c5cccnn5)C4)cc3)CC2)cc1 [Example 418, N-[4-(1-{N-[(4-methylphenyl)sulfonyl]glycyl}piperidin-4-yl)phenyl]-1-(pyridazin-3-yl)azetidine-3-carboxamide] | 8.26
6 | CO[C@H](C(=O)N1CCC(c2ccc(NC(=O)C3CN(c4cccnn4)C3)cc2)CC1)c1ccccc1 [Example 420, N-(4-{1-[(2S)-2-methoxy-2-phenylacetyl]piperidin-4-yl}phenyl)-1-(pyridazin-3-yl)azetidine-3-carboxamide] | 2.35
7 | O=C(Nc1ccc(C2CCN(C(=O)CCc3ccccc3)CC2)cc1)C1CN(c2cccnn2)C1 [Example 422, N-{4-[1-(3-phenylpropanoyl)piperidin-4-yl]phenyl}-1-(pyridazin-3-yl)azetidine-3-carboxamide] | 1.12
8 | O=C(Nc1ccc(C2CCN(C(=O)Cc3c(Cl)cccc3Cl)CC2)cc1)C1CN(c2cccnn2)C1 [Example 423, N-(4-{1-[(2,6-dichlorophenyl)acetyl]piperidin-4-yl}phenyl)-1-(pyridazin-3-yl)azetidine-3-carboxamide] | 0.38
9 | O=C(Nc1ccc(C2CCN(C(=O)CC3CC3)CC2)cc1)C1CN(c2cccnn2)C1 [Example 427, N-{4-[1-(cyclopropylacetyl)piperidin-4-yl]phenyl}-1-(pyridazin-3-yl)azetidine-3-carboxamide] | 2.03
10 | Cc1ccccc1C(=O)N1CCC(c2ccc(NC(=O)C3CN(c4cccnn4)C3)cc2)CC1 [Example 429, N-{4-[1-(2-methylbenzoyl)piperidin-4-yl]phenyl}-1-(pyridazin-3-yl)azetidine-3-carboxamide] | 0.8
11 | O=C(Nc1ccc(C2CCN(C(=O)c3cncs3)CC2)cc1)C1CN(c2cccnn2)C1 [Example 431, 1-(pyridazin-3-yl)-N-{4-[1-(1,3-thiazol-5-ylcarbonyl)piperidin-4-yl]phenyl}azetidine-3-carboxamide] | 1.67

Further compounds by falling IC50, results first:

Row | IC50 [nM] | Structure (SMILES)
12 | 29.9 | O=C(NCC(=O)N1CCC(c2ccc(NC(=O)C3CN(c4cccnn4)C3)cc2)CC1)c1ccco1 [Example 408, N-(4-{1-[N-(furan-2-ylcarbonyl)glycyl]piperidin-4-yl}phenyl)-1-(pyridazin-3-yl)azetidine-3-carboxamide]
13 | 10 | O=C(NCC(=O)N1CCC(c2ccc(NC(=O)C3CN(c4cccnn4)C3)cc2)CC1)c1ccccc1 [Example 413, N-{4-[1-(N-benzoylglycyl)piperidin-4-yl]phenyl}-1-(pyridazin-3-yl)azetidine-3-carboxamide]
14 | 8 | CCOCC(=O)N1CCC(c2ccc(NC(=O)C3CN(c4cccnn4)C3)cc2)CC1 [Example 432, N-{4-[1-(ethoxyacetyl)piperidin-4-yl]phenyl}-1-(pyridazin-3-yl)azetidine-3-carboxamide]
15 | 7.15 | O=C(Nc1ccc(C2CCN(C(=O)C3CC3)CC2)cc1)C1CN(c2cccnn2)C1 [Example 411, N-{4-[1-(cyclopropylcarbonyl)piperidin-4-yl]phenyl}-1-(pyridazin-3-yl)azetidine-3-carboxamide]
16 | 6.45 | O=C(Nc1ccc(C2CCN(C(=O)C3CCC3)CC2)cc1)C1CN(c2cccnn2)C1 [Example 417, N-{4-[1-(cyclobutylcarbonyl)piperidin-4-yl]phenyl}-1-(pyridazin-3-yl)azetidine-3-carboxamide]
17 | 3.72 | O=C(Nc1ccc(C2CCN(C(=O)Cc3ccc4ccccc4c3)CC2)cc1)C1CN(c2cccnn2)C1 [Example 421, N-{4-[1-(naphthalen-2-ylacetyl)piperidin-4-yl]phenyl}-1-(pyridazin-3-yl)azetidine-3-carboxamide]
18 | 2.17 | O=C(Nc1ccc(C2CCN(C(=O)Cc3cccc(F)c3F)CC2)cc1)C1CN(c2cccnn2)C1 [Example 419, N-(4-{1-[(2,3-difluorophenyl)acetyl]piperidin-4-yl}phenyl)-1-(pyridazin-3-yl)azetidine-3-carboxamide]
19 | 2.07 | Cc1cc(C(=O)N2CCC(c3ccc(NC(=O)C4CN(c5cccnn5)C4)cc3)CC2)c(C)o1 [Example 426, N-(4-{1-[(2,5-dimethylfuran-3-yl)carbonyl]piperidin-4-yl}phenyl)-1-(pyridazin-3-yl)azetidine-3-carboxamide]
20 | 1.5 | O=C(Nc1ccc(C2CCN(C(=O)CCS(=O)(=O)c3ccccc3)CC2)cc1)C1CN(c2cccnn2)C1 [Example 424, N-(4-{1-[3-(phenylsulfonyl)propanoyl]piperidin-4-yl}phenyl)-1-(pyridazin-3-yl)azetidine-3-carboxamide]
21 | 1.42 | O=C(Nc1ccc(C2CCN(C(=O)c3cscn3)CC2)cc1)C1CN(c2cccnn2)C1 [Example 430, 1-(pyridazin-3-yl)-N-{4-[1-(1,3-thiazol-4-ylcarbonyl)piperidin-4-yl]phenyl}azetidine-3-carboxamide]
22 | 1.37 | O=C(Nc1ccc(C2CCN(C(=O)C3CCCO3)CC2)cc1)C1CN(c2cccnn2)C1 (centres unmarked) [Example 412, 1-(pyridazin-3-yl)-N-{4-[1-(tetrahydrofuran-2-ylcarbonyl)piperidin-4-yl]phenyl}azetidine-3-carboxamide]
23 | 1.12 | O=C(Nc1ccc(C2CCN(C(=O)c3cc(F)ccc3F)CC2)cc1)C1CN(c2cccnn2)C1 [Example 416, N-{4-[1-(2,5-difluorobenzoyl)piperidin-4-yl]phenyl}-1-(pyridazin-3-yl)azetidine-3-carboxamide]
24 | 1.01 | CO[C@@H](C(=O)N1CCC(c2ccc(NC(=O)C3CN(c4cccnn4)C3)cc2)CC1)c1ccccc1 [Example 407, N-(4-{1-[(2R)-2-methoxy-2-phenylacetyl]piperidin-4-yl}phenyl)-1-(pyridazin-3-yl)azetidine-3-carboxamide]
25 | 0.91 | O=C(Nc1ccc(C2CCN(C(=O)c3ccsc3)CC2)cc1)C1CN(c2cccnn2)C1 [Example 425, 1-(pyridazin-3-yl)-N-{4-[1-(thiophen-3-ylcarbonyl)piperidin-4-yl]phenyl}azetidine-3-carboxamide]
26 | 0.19 | O=C(Nc1ccc(C2CCN(C(=O)c3ccccc3F)CC2)cc1)C1CN(c2cccnn2)C1 [Example 428, N-{4-[1-(2-fluorobenzoyl)piperidin-4-yl]phenyl}-1-(pyridazin-3-yl)azetidine-3-carboxamide]
